The values that follow come from patent publication US20250346564A1 (ARase Therapeutics Inc., priority 2022, published 2025).

Structures are written as SMILES.

PARG, sequence (Q86W56 whole entry): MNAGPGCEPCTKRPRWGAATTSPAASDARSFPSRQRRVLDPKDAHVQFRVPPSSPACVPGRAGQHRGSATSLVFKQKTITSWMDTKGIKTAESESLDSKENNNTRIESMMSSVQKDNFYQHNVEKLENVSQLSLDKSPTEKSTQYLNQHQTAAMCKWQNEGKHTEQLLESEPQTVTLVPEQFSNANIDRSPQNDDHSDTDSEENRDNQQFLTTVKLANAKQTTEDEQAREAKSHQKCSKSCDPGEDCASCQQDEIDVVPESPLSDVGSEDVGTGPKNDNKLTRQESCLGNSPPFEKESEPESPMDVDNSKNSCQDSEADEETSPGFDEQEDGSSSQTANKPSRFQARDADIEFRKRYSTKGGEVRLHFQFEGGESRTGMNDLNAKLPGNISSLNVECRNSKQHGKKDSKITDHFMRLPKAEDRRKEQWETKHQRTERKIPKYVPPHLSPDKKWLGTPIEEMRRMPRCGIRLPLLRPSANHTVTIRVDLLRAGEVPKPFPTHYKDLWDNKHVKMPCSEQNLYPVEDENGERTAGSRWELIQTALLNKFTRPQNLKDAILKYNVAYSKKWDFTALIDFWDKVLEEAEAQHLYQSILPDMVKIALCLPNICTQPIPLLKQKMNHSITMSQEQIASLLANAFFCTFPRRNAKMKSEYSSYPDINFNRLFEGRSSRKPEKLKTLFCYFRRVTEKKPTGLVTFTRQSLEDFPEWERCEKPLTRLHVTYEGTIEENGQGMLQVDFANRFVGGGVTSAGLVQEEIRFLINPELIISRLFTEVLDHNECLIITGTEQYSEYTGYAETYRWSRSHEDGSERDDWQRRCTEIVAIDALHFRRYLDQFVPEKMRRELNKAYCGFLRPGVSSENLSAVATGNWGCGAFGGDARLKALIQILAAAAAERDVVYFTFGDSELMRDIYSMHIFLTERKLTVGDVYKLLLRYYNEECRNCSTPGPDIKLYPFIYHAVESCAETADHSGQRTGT

The test has as its target PARG (Homo sapiens (Human), UniProt Q86W56). The test can be described thus: PARG TFMU assay (4-(trifluoromethyl)umbelliferone substrate). The format is biochemical. To be noted: PARG 250 pM or 2 nM, 10-point dose response. As to the method:
Example C. Inhibition of PARG TEMU Assay
The ability of the compounds of the Examples to inhibit PARG activity in 4. (trifluoromethyl)umbelliferone (TFMU) assay was determined as described below. PARG inhibitors were added into 384 well plate for a 10-point dose response curve at 1:3 dilutions. TFMU PARG substrate and PARG (250 pM or 2 nM) were then added to the plate to initiate enzymatic reaction. After incubation with the reagent, […] was read. IC50 values were calculated using set control points for 100% inhibition as no enzyme and 0% inhibition 250 pM or 2 nM of PARG enzyme.
`C=C[C@@H]1C[C@@]1(C#N)NS(=O)(=O)c1ccc2c(c1)c(=O)n(CC)c(=O)n2CC` (single isomer, unassigned) [Example 52]: the IC50 – broadly, the concentration that gives 50% inhibition – is at least 5000 nM. For `CC(C)C(=O)N1CCN(c2cc(S(=O)(=O)NC3(C)COC3)cc3c2cnn3-c2nnc(CS(C)(=O)=O)s2)CC1` [Example 31, 4-(4-isobutyrylpiperazin-1-yl)-N-(3-methyloxetan-3-yl)-1-(5-((methylsulfonyl)methyl)-1,3,4-thiadiazol-2-yl)-1H-indazole-6-sulfonamide], the IC50 is under 50 nM. For `CN(CC(F)F)C(=O)N1CCN(c2cc(S(=O)(=O)NC3(CF)COC3)cc3c2cnn3-c2nnc(C(F)F)s2)CC1` [Example 77, N-(2,2-difluoroethyl)-4-(1-(5-(difluoromethyl)-1,3,4-thiadiazol-2-yl)-6-(N-(3-(fluoromethyl)oxetan-3-yl)sulfamoyl)-1H-indazol-4-yl)-N-methylpiperazine-1-carboxamide], the IC50 is under 50 nM. For the compound `CC(C)C(=O)N1CCN(c2cc(S(=O)(=O)NC3(C#N)COC3C)cc3c2cnn3-c2nnc(C(F)F)s2)CC1` (stereo not shown) [Example 32, N-(3-cyano-2-methyloxetan-3-yl)-1-(5-(difluoromethyl)-1,3,4-thiadiazol-2-yl)-4-(4-isobutyrylpiperazin-1-yl)-1H-indazole-6-sulfonamide], the IC50 was in the range of 50 to 500 nM. Under `CCn1c(=O)c2cc(S(=O)(=O)N[C@@]3(C#N)CO[C@H]3C)ccc2n(CC)c1=O` (single isomer, unassigned) [Example 61] stands 500 to 5000 nM. On to `CC1OCC1(C)NS(=O)(=O)c1cc(Cl)c2cnn(-c3nnc(C(F)F)s3)c2c1` (stereo not shown) [Example 71, 4-chloro-1-(5-(difluoromethyl)-1,3,4-thiadiazol-2-yl)-N-(2,3-dimethyloxetan-3-yl)-1H-indazole-6-sulfonamide], for which the IC50 was 50 to 500 nM.

In turn, `Cc1nnc(-n2ncc3c(N4CCN(C(=O)C(C)C)CC4)cc(S(=O)(=O)NC4(CF)COC4)cc32)s1` [Example 42, N-(3-(fluoromethyl)oxetan-3-yl)-4-(4-isobutyrylpiperazin-1-yl)-1-(5-methyl-1,3,4-thiadiazol-2-yl)-1H-indazole-6-sulfonamide] displayed an IC50 of under 50 nM. Under `CC(C)C(=O)N1CCN(c2cc(S(=O)(=O)NC3(CF)COC3)cc3c2cnn3-c2nnc(C3CC3)s2)CC1` [Example 43, 1-(5-cyclopropyl-1,3,4-thiadiazol-2-yl)-N-(3-(fluoromethyl)oxetan-3-yl)-4-(4-isobutyrylpiperazin-1-yl)-1H-indazole-6-sulfonamide] stands under 50 nM; under `CC1(NS(=O)(=O)c2cc(Cl)c3cnn(-c4nnc(C(F)F)s4)c3c2)COC1` [Example 24], 50 to 500 nM. `CCn1c(=O)c2cc(S(=O)(=O)N[C@@H]3CC[C@H]3CO)ccc2n(CC)c1=O` (single isomer, unassigned) [Example 74] displayed an IC50 of at least 5000 nM. Under `N#CC1(NS(=O)(=O)c2cc(Cl)c3cnn(-c4nnc(C(F)F)s4)c3c2)COC1` [Example 63, 4-chloro-N-(3-cyanooxetan-3-yl)-1-(5-(difluoromethyl)-1,3,4-thiadiazol-2-yl)-1H-indazole-6-sulfonamide] stands 500 to 5000 nM; under `C=C[C@@H]1C[C@]1(C#N)NS(=O)(=O)c1ccc2c(c1)c(=O)n(CC)c(=O)n2CC` (single isomer, unassigned) [Example 51], at least 5000 nM. For the compound `N#CC1(NS(=O)(=O)c2cc(N3CCN(C(=O)N4CCCC4)CC3)c3cnn(-c4nnc(C(F)F)s4)c3c2)COC1` [Example 38, N-(3-cyanooxetan-3-yl)-1-(5-(difluoromethyl)-1,3,4-thiadiazol-2-yl)-4-(4-(pyrrolidine-1-carbonyl)piperazin-1-yl)-1H-indazole-6-sulfonamide], the IC50 is under 50 nM. The same measure for `CC(C)C(=O)N1CCN(c2cc(S(=O)(=O)NC3(C)COC3)cc3c2cnn3-c2nncs2)CC1` [Example 46, 4-(4-isobutyrylpiperazin-1-yl)-N-(3-methyloxetan-3-yl)-1-(1,3,4-thiadiazol-2-yl)-1H-indazole-6-sulfonamide]: under 50 nM; for `Cc1nnc(-n2ncc3c(N4CCN(C(=O)C(C)C)CC4)cc(S(=O)(=O)NC4(C)COC4)cc32)s1` [Example 45, 4-(4-isobutyrylpiperazin-1-yl)-1-(5-methyl-1,3,4-thiadiazol-2-yl)-N-(3-methyloxetan-3-yl)-1H-indazole-6-sulfonamide]: under 50 nM. Under `CC1(NS(=O)(=O)c2ccc3cnn(-c4nnc(C(F)F)s4)c3c2)COC1` [Example 23, 1-(5-(difluoromethyl)-1,3,4-thiadiazol-2-yl)-N-(3-methyloxetan-3-yl)-1H-indazole-6-sulfonamide] stands 50 to 500 nM; under `CN1CCN(c2cc(S(=O)(=O)NC3(C)COC3)cc3c2cnn3-c2nnc(C(F)F)s2)CC1` [Example 48, 1-(5-(difluoromethyl)-1,3,4-thiadiazol-2-yl)-N-(3-methyloxetan-3-yl)-4-(4-methylpiperazin-1-yl)-1H-indazole-6-sulfonamide], 50 to 500 nM; under `CC(C)C(=O)N1CCN(c2cc(S(=O)(=O)N[C@@]3(C)CO[C@H]3C)cc3c2cnn3-c2nnc(C(F)F)s2)CC1` (single isomer, unassigned) [Example 27], under 50 nM.

For the compound `C=Cc1nnc(-n2ncc3c(N4CCN(C(=O)C(C)C)CC4)cc(S(=O)(=O)NC4(CF)COC4)cc32)s1` [Example 47, N-(3-(fluoromethyl)oxetan-3-yl)-4-(4-isobutyrylpiperazin-1-yl)-1-(5-vinyl-1,3,4-thiadiazol-2-yl)-1H-indazole-6-sulfonamide], the IC50 is under 50 nM.

The compound `CN(CC(F)F)C(=O)N1CCN(c2cc(S(=O)(=O)NC3(C)COC3)cc3c2cnn3-c2nnc(C(F)F)s2)CC1` [Example 37, N-(2,2-difluoroethyl)-4-(1-(5-(difluoromethyl)-1,3,4-thiadiazol-2-yl)-6-(N-(3-methyloxetan-3-yl)sulfamoyl)-1H-indazol-4-yl)-N-methylpiperazine-1-carboxamide] returned an IC50 of under 50 nM. In the case of `CC1(NS(=O)(=O)c2cc(Cl)c3cnn(-c4nnc(C(F)F)s4)c3c2)CC1CCO` (stereo not shown) [Example 65, 4-chloro-1-(5-(difluoromethyl)-1,3,4-thiadiazol-2-yl)-N-(2-(2-hydroxyethyl)-1-methylcyclopropyl)-1H-indazole-6-sulfonamide], the IC50 was 500 to 5000 nM. For `CC(C)C(=O)N1CCN(c2cc(S(=O)(=O)NC3(C)CCC3)cc3c2cnn3-c2nnc(C(F)F)s2)CC1` [Example 21, 1-(5-(difluoromethyl)-1,3,4-thiadiazol-2-yl)-4-(4-isobutyrylpiperazin-1-yl)-N-(1-methylcyclobutyl)-1H-indazole-6-sulfonamide], the IC50 fell in the range of 50 to 500 nM. Consider `C=Cc1nnc(-n2ncc3c(N4CCN(C(=O)C(C)C)CC4)cc(S(=O)(=O)NC4(C)COC4)cc32)s1` [Example 80, 4-(4-isobutyrylpiperazin-1-yl)-N-(3-methyloxetan-3-yl)-1-(5-vinyl-1,3,4-thiadiazol-2-yl)-1H-indazole-6-sulfonamide], for which the IC50 is under 50 nM. In turn, `CCn1c(=O)c2cc(S(=O)(=O)N[C@H]3CC[C@@H]3CO)ccc2n(CC)c1=O` (single isomer, unassigned) [Example 75] yielded an IC50 of at least 5000 nM. In turn, `CCn1c(=O)c2cc(S(=O)(=O)N[C@@]3(C#N)C[C@@H]3CO)ccc2n(CC)c1=O` (single isomer, unassigned) [Example 78] yielded a half-maximal inhibitory concentration (IC50) of at least 5000 nM. For the compound `N#CC1(NS(=O)(=O)c2cc(N3CCN(C(=O)C4CC4)CC3)c3cnn(-c4nnc(C(F)F)s4)c3c2)COC1` [Example 39, N-(3-cyanooxetan-3-yl)-4-(4-(cyclopropanecarbonyl)piperazin-1-yl)-1-(5-(difluoromethyl)-1,3,4-thiadiazol-2-yl)-1H-indazole-6-sulfonamide], the half-inhibitory concentration (IC50) was under 50 nM. As for `Cc1ncc(Cn2c(=O)c3cc(S(=O)(=O)NC4(CF)COC4)ccc3n(Cc3sc(C)nc3C)c2=O)s1` [Example 28B, 1-((2,4-dimethylthiazol-5-yl)methyl)-N-(3-(fluoromethyl)oxetan-3-yl)-3-((2-methylthiazol-5-yl)methyl)-2,4-dioxo-1,2,3,4-tetrahydroquinazoline-6-sulfonamide], the IC50 was under 50 nM. The same measure for `CC(C)C(=O)N1CCN(c2cc(S(=O)(=O)NC3COC3)cc3c2cnn3-c2nnc(C(F)F)s2)CC1` [Example 29, 1-(5-(difluoromethyl)-1,3,4-thiadiazol-2-yl)-4-(4-isobutyrylpiperazin-1-yl)-N-(oxetan-3-yl)-1H-indazole-6-sulfonamide]: 50 to 500 nM; for `Cc1ncc(Cn2c(=O)c3cc(S(=O)(=O)NC4(C#N)COC4)ccc3n(Cc3sc(C)nc3C)c2=O)s1` [Example 25B, N-(3-cyanooxetan-3-yl)-1-((2,4-dimethylthiazol-5-yl)methyl)-3-((2-methylthiazol-5-yl)methyl)-2,4-dioxo-1,2,3,4-tetrahydroquinazoline-6-sulfonamide]: 50 to 500 nM. Regarding `N#CC1(NS(=O)(=O)c2cc(N3CCN(C(=O)C4CCCC4)CC3)c3cnn(-c4nnc(C(F)F)s4)c3c2)COC1` [Example 40, N-(3-cyanooxetan-3-yl)-4-(4-(cyclopentanecarbonyl)piperazin-1-yl)-1-(5-(difluoromethyl)-1,3,4-thiadiazol-2-yl)-1H-indazole-6-sulfonamide], the IC50 is under 50 nM. `CC(C)C(=O)N1CCN(c2cc([S@TB20](=O)(=O)NC3(CF)COC3)cc3c2cnn3-c2nnc(C(F)F)s2)CC1` [Example 22, 1-(5-(difluoromethyl)-1,3,4-thiadiazol-2-yl)-N-(3-(fluoromethyl)oxetan-3-yl)-4-(4-isobutyrylpiperazin-1-yl)-1H-indazole-6-sulfonamide] showed an IC50 of under 50 nM.
